In patent US20160199298A1, “FOSFESTROL FOR USE IN CURATIVE OR PALLIATIVE TREATMENT OF CANCER IN FEMALE MAMMALS” (CHAMAELEO PHARMA BVBA, priority 2012, published 2016):

Key:
MDA-MB-231 Cells = assay: in vitro direct cytotoxicity, Cell titer blue viability assay; assay type: cell-based; conditions: MDA-MB-231 cells (hormone-insensitive), 72 hrs incubation, 1% FBS assay media
Description: (§1) Cells were maintained in vitro in RPMI 1640 containing 10% (v/v) heat inactivated fetal bovine serum (FBS) and 2 mM L-glutamine (growth media) at 37° C. in 5% CO2 and humidified conditions. Cells were harvested, washed, re-suspended into growth medium and counted. The cells were re-suspended into assay media (RPMI 1640+1% (v/v) heat inactivated FBS+ and 2 mM L-glutamine) at 0.5-1×10^5 cells/ml (dependent on cell type), and plated into 96-well assay plates (Corning, black-wall plates) and 50 μl/well aliquots.
(§2) Plates were incubated O/N at 37° C. in 5% humidified CO2 prior to addition of the compounds. […] Fosfestrol was dissolved in sterile water at stock concentration of 60 mM.
(§3) Stocks of all compounds were then serially diluted and final concentration to which cells were exposed were: 300, 150, 75, 37.5, 18.75, 9.4, 4.7, 2.3, 1.2 and 0.6 μM. Positive control was Cisplatin. Cisplatin was diluted in 1% FBS medium to give a stock concentration of 1 mM. Cisplatin stock was serial diluted and final concentration to which cells were exposed was: 100, 50, 25, 12.5, 6.3, […], 1.6, 0.8, 0.4, 0.2 μM.
(§4) Plates were incubated for 72 hrs at 37° C. in 5% humidified CO-2 after addition of the compounds. Viability of the cells was assessed with the Cell titer blue® (Promega) assay. […] Fluorescence was measured with a Flex II station plate reader. […]

MCF7 Cells = assay: as above; assay type: cell-based; conditions: MCF7 cells (hormone-sensitive), 72 hrs incubation, 1% FBS assay media
Description: as §1, §2, §3, §4

[1] = prostate cancer patients, 5 mg p.o. per day; cited from earlier work
[2] = system: hormone independent mammary carcinomas; conditions: very high doses in vivo; cited from earlier work
MCF-7 cells = conditions: 4 days, 5 μM (2 μg/ml); cited from earlier work
[3] = system: postmenopausal breast cancer patients heavily exposed to endocrine therapy; conditions: 15 mg daily p.o., cited from earlier work
[4] = system: postmenopausal women with metastatic breast cancer; conditions: women initially treated; cited from earlier work

N.N.[Cl][Pt][Cl] [Cisplatin]
IC50 (MDA-MB-231 Cells): 13 µM | IC50 (MCF7 Cells): 2.8 µM

CC/C(=C(/CC)c1ccc(O)cc1)c1ccc(O)cc1 [DES, diethylstilbestrol]
increase in non-cancer related deaths, mostly cardiovascular [1]: 36% | effect on hormone independent mammary carcinomas [2]: no effect | reduction in cell growth (MCF-7 cells): no effect at all | efficacy in highly pretreated patients [3]: effective | patients who stopped therapy because of side effects ([3]; six patients): 19% | 5-year survival [4]: 35% | median survival [4]: 3.0 years

CC/C(=C(\c1ccccc1)c1ccc(OCCN(C)C)cc1)c1ccccc1 [tamoxifen]
5-year survival [4]: 16% | median survival [4]: 2.4 years

CC/C(=C(/CC)c1ccc(OP(=O)(O)O)cc1)c1ccc(O)cc1 [DES monophosphate]
reduction in cell growth (MCF-7 cells): no effect at all
